Structures can show the parent of a compound that is named as a salt.
SMILES | melting point
Cc1ccccc1N1Cc2cnc(NC3CCN(CCC#N)CC3)nc2N(C)C1=O (as salt: hydrochloride) [Compound 2-15, 7-[1-(2-cyanoethyl)-piperidin-4-ylamino]-1-methyl-3-ortho-tolyl-3,4-dihydropyrimido[4,5-d]pyrimidin-2(1H)-one] | 195 to 208.5 °C
CN(C)C(=O)CN1CCC(CNc2ncc3c(n2)NC(=O)N(c2ccccc2Cl)C3)CC1 (as salt: hydrochloride) [Compound 2-19, 3-(2-chlorophenyl)-7-[(1-dimethylaminocarbonylmethylpiperidin-4-ylmethyl)amino]-3,4-dihydropyrimido[4,5-d]pyrimidin-2(1H)-one] | 210.2 to 214.4 °C
Cc1ccccc1N1Cc2cnc(NC3CCN(CCO)CC3)nc2N(C)C1=O [Compound 2-13, 7-[1-(2-hydroxyethyl)-piperidin-4-ylamino]-1-methyl-3-ortho-tolyl-3,4-dihydropyrimido[4,5-d]pyrimidin-2(1H)-one] | 250 to 257 °C
C[C@@H](CO)Nc1ncc2c(n1)N(C1CCNCC1)C(=O)N(c1ccccc1Cl)C2 (as salt: hydrochloride) | 244 to 248 °C
Cc1ccccc1N1Cc2cnc(NC3CCN(C[C@@H](O)CO)CC3)nc2N(C)C1=O (as salt: hydrochloride) [Compound 2-14, (R)-7-[1-(2,3-dihydroxypropyl)piperidin-4-ylamino]-1-methyl-3-ortho-tolyl-3,4-dihydropyrimido[4,5-d]pyrimidin-2(1H)-one] | 195 to 208 °C
N#CCN1CCC(CNc2ncc3c(n2)NC(=O)N(c2ccccc2Cl)C3)CC1 (as salt: hydrochloride) [Compound 2-22, 3-(2-chlorophenyl)-7-[(1-cyanomethylpiperidin-4-ylmethyl)amino]-3,4-dihydropyrimido[4,5-d]pyrimidin-2(1H)-one] | 207.2 to 207.7 °C
Cc1ccccc1N1Cc2cnc(NC3CCN(Cc4ccccc4)CC3)nc2N(C)C1=O (as salt: hydrochloride) [Compound 2-9, 7-(1-benzylpiperidin-4-ylamino)-1-methyl-3-ortho-tolyl-3,4-dihydropyrimido[4,5-d]pyrimidin-2(1H)-one] | 253 to 253.9 °C
NC(=O)CN1CCC(CNc2ncc3c(n2)NC(=O)N(c2ccccc2Cl)C3)CC1 (as salt: hydrochloride) [Compound 2-23, 3-(2-chlorophenyl)-7-[(1-aminocarbonylmethylpiperidin-4-ylmethyl)amino]-3,4-dihydropyrimido[4,5-d]pyrimidin-2(1H)-one] | 229.9 to 232.2 °C
C[C@@H](O)[C@H](CO)Nc1ncc2c(n1)N(C)C(=O)N(c1ccccc1Cl)C2 (stereo in doubt) (as salt: hydrochloride) [Compound 1-13, 3-(2-chlorophenyl)-7-((1S,2R)-2-hydroxy-1-hydroxymethyl-propylamino)-1-methyl-3,4-dihydropyrimido-[4,5-d]pyrimidin-2(1H)-one] | 199 to 204 °C
O=C(O)CN1CCC(CNc2ncc3c(n2)NC(=O)N(c2ccccc2Cl)C3)CC1 (as salt: hydrochloride) [Compound 2-24, 3-(2-chlorophenyl)-7-[(1-hydroxycarbonylmethylpiperidin-4-ylmethyl)amino]-3,4-dihydropyrimido[4,5-d]pyrimidin-2(1H)-one] | 215 to 219 °C

Now from value to molecule:

melting point | SMILES
230 to 240 °C | O=C(O)CN1C(=O)N(c2ccccc2Cl)Cc2cnc(N[C@H]3CC[C@H](O)CC3)nc21 [Compound 3-53, 3-(2-chlorophenyl)-7-(trans-4-hydroxycyclohexylamino)-1-hydroxycarbonylmethyl-3,4-dihydropyrimido[4,5-d]pyrimidin-2(1H)-one]
204 to 210 °C | O=C1CCC(Nc2ncc3c(n2)NC(=O)N(c2ccccc2Cl)C3)CC1 (as salt: hydrochloride) [Compound 4-23, 3-(2-chlorophenyl)-7-(4-oxo-cyclohexylamino)-3,4-dihydropyrimido[4,5-d]pyrimidin-2(1H)-one]
208.3 to 217.9 °C | O=C1Nc2nc(NCC3CCC(O)CC3)ncc2CN1c1ccccc1Cl (stereo not drawn) (as salt: hydrochloride) [Compound 4-17, 3-(2-chlorophenyl)-7-[(4-hydroxycyclohexylmethyl)amino]-3,4-dihydropyrimido[4,5-d]pyrimidin-2(1H)-one]
212 to 215 °C | COC(=O)CN1C(=O)N(c2ccccc2Cl)Cc2cnc(N[C@H]3CC[C@H](O)CC3)nc21 [Compound 3-49, 3-(2-chlorophenyl)-7-(trans-4-hydroxycyclohexylamino)-1-methoxycarbonylmethyl-3,4-dihydropyrimido[4,5-d]pyrimidin-2(1H)-one]
267 to 267.6 °C | NC(=O)O[C@H]1CC[C@H](Nc2ncc3c(n2)NC(=O)N(c2ccccc2Cl)C3)CC1 (as salt: hydrochloride) [Compound 4-21, 7-(trans-4-carbamoyloxycyclohexylamino)-3-(2-chlorophenyl)-3,4-dihydropyrimido[4,5-d]pyrimidin-2(1H)-one]
173.6 to 189.7 °C | O=C1Nc2nc(NC3CCC4(CC3)OCCO4)ncc2CN1c1ccccc1Cl (as salt: hydrochloride) [Compound 4-24, 3-(2-chlorophenyl)-7-(1,4-dioxaspiro[4.5]dec-8-ylamino)-3,4-dihydropyrimido[4,5-d]pyrimidin-2(1H)-one]
130.8 °C | N#CCN1C(=O)N(c2ccccc2Cl)Cc2cnc(N[C@H]3CC[C@H](O)CC3)nc21 [Compound 3-55, 3-(2-chlorophenyl)-7-(trans-4-hydroxycyclohexylamino)-1-cyanomethyl-3,4-dihydropyrimido[4,5-d]-pyrimidin-2(1H)-one]
119.8 to 121.8 °C | Cc1ccccc1N1Cc2cnc(N[C@H](C)[C@@H](O)CO)nc2N(C)C1=O [Compound 3-23, 7-((R,R)-2,3-dihydroxy-1-methylpropylamino)-3-ortho-tolyl-1-methyl-3,4-dihydropyrimido[4,5-d]pyrimidin-2(1H)-one]
96.6 to 122.8 °C | O=C1N(c2ccccc2Cl)Cc2cnc(N[C@H]3CC[C@H](O)CC3)nc2N1CCO [Compound 3-56, 3-(2-chlorophenyl)-7-(trans-4-hydroxycyclohexylamino)-1-(2-hydroxyethyl)-3,4-dihydropyrimido[4,5-d]pyrimidin-2(1H)-one]
169.7 to 175.1 °C | CCOCC(COCC)N1C(=O)N(c2ccccc2Cl)Cc2cnc(N[C@H](C)CO)nc21 (as salt: hydrochloride) [Compound 3-21, (R)-3-(2-chlorophenyl)-7-[(2-hydroxy-1-methylethyl)amino]-1-(2-ethoxy-1-ethoxymethylethyl)-3,4-dihydropyrimido[4,5-d]pyrimidin-2(1H)-one]
233.4 to 236.3 °C | CN1C(=O)N(c2ccccc2Cl)Cc2cnc(NC3CCC(=O)CC3)nc21 (as salt: hydrochloride) [Compound 3-46, 3-(2-chlorophenyl)-7-(4-oxo-cyclohexylamino)-1-methyl-3,4-dihydropyrimido[4,5-d]pyrimidin-2(1H)-one]
292.8 to 293.2 °C | CS(=O)(=O)N[C@H]1CC[C@H](Nc2ncc3c(n2)NC(=O)N(c2ccccc2Cl)C3)CC1 [Compound 4-28, 3-(2-chlorophenyl)-7-[trans-4-(methanesulfonylamino)cyclohexylamino]-3,4-dihydropyrimido[4,5-d]pyrimidin-2(1H)-one]
269 to 271 °C | CNC(=O)O[C@H]1CC[C@H](Nc2ncc3c(n2)NC(=O)N(c2ccccc2Cl)C3)CC1 (as salt: hydrochloride) [Compound 4-22, 3-(2-chlorophenyl)-7-(trans-4-methylaminocarbonyloxycyclohexylamino)-3,4-dihydropyrimido[4,5-d]pyrimidin-2(1H)-one]
> 300 °C | O=CO[C@H]1CC[C@H](Nc2ncc3c(n2)NC(=O)N(c2ccccc2Cl)C3)CC1 [Compound 4-15, 3-(2-chlorophenyl)-7-(trans-4-formyloxycyclohexylamino)-3,4-dihydropyrimido[4,5-d]pyrimidin-2(1H)-one]
161 to 172 °C | Cc1ccccc1N1Cc2cnc(N[C@H](C)[C@@H](O)CO)nc2NC1=O (as salt: hydrochloride) [Compound 4-4, (R,R)-7-(2,3-dihydroxy-1-methylpropylamino)-3-ortho-tolyl-3,4-dihydropyrimido[4,5-d]pyrimidin-2(1H)-one]
218.5 to 221 °C | O=C1N(c2ccccc2Cl)Cc2cnc(N[C@H]3CC[C@H](O)CC3)nc2N1Cc1ccccc1 (as salt: hydrochloride) [Compound 3-48, 1-benzyl-3-(2-chlorophenyl)-7-(trans-4-hydroxycyclohexylamino)-3,4-dihydropyrimido[4,5-d]pyrimidin-2(1H)-one]
> 260 °C | COC(=O)O[C@H]1CC[C@H](Nc2ncc3c(n2)NC(=O)N(c2ccccc2Cl)C3)CC1 (as salt: hydrochloride) [Compound 4-20, 3-(2-chlorophenyl)-7-(trans-4-methoxycarbonyloxycyclohexylamino)-3,4-dihydropyrimido[4,5-d]pyrimidin-2(1H)-one]
> 300 °C | CC(=O)O[C@H]1CC[C@H](Nc2ncc3c(n2)NC(=O)N(c2ccccc2Cl)C3)CC1 (as salt: hydrochloride) [Compound 4-13, 7-(trans-4-acetyloxycyclohexylamino)-3-(2-chlorophenyl)-3,4-dihydropyrimido[4,5-d]pyrimidin-2(1H)-one]
203.1 to 204.1 °C | CN1C(=O)N(c2ccccc2Cl)Cc2cnc(NC(C)(C)C(O)CO)nc21 (stereo not drawn) (as salt: hydrochloride) [Compound 3-28, 3-(2-chlorophenyl)-7-(2,3-dihydroxy-1,1-dimethylpropylamino)-1-methyl-3,4-dihydropyrimido[4,5-d]pyrimidin-2(1H)-one]
203.7 to 207.8 °C | CN1C(=O)N(c2ccccc2Cl)Cc2cnc(NC3(CO)CCCCC3)nc21 (as salt: hydrochloride) [Compound 3-43, 3-(2-chlorophenyl)-7-[(1-hydroxymethylcyclohexyl)amino]-1-methyl-3,4-dihydropyrimido[4,5-d]pyrimidin-2(1H)-one]
